Measurements published in US11142554B2 (MASSACHUSETTS INSTITUTE OF TECHNOLOGY, priority 2015, dated 2021).
Positions of bridges follow the written chain, without caps; N, C: chain ends. Non-standard residues stand in square brackets, D forms with d. Residues, ends and D or L forms follow the SMILES beside them. S5 = C=CCCC[C@](C)(N)C(=O)O; Nle = CCCC[C@H](N)C(=O)O

Experiments:
[1] = test system: Bcl-2/Myc 2924 cells
Method: (§1) A whole-cell BH3 profiling assay was used to test the specificity of our Mcl-1-binding peptides in several cell lines with differing dependencies on Bcl-2, Mcl-1, Bcl-xL, or Bfl-1. In this assay, permeabilized cells were treated with increasing doses of BH3 peptides, and mitochondrial outer membrane permeabilization (MOMP) was monitored using the dye JC-1 (see below). Mcl-1/Myc 2640 is an engineered murine leukemia cell line overexpressing murine Mcl-1 and Myc, and Bcl-2/Myc 2924 is a similarly engineered cell line overexpressing human Bcl-2.
(§2) Assay plates were produced by serial dilution of each peptide from 200 μM to 0.2 nM using 10-fold dilutions in DTEB (Derived from Trehalose Experimental Buffer: 135 mM trehalose, 50 mM KCl, 20 μM EDTA, 20 μM EGTA, 0.1% BSA, 5 mM succinate, 10 mM HEPES-KOH pH 7.5) containing 0.005% w/v digitonin, 10 mM 2-mercaptoethanol, 2 μM JC-1, and 20 mg mL-1 oligomycin. Triplicate wells for each peptide were made for each cell line by adding 15 μL of the peptide dilutions to each well of a black, untreated 384-well plate. Control wells containing no peptide or 20 μM FCCP (carbonyl cyanide-4(trifluoromethoxy) phenylhydrazone, a chemical uncoupler of oxidative phosphorylation) were included for zero and complete depolarization, respectively. Multiple plates were produced from the same stock and frozen at −80 ° C. for later use. Frozen plates were brought to RT prior to use, cells were suspended in DTEB at a density of 1.34×10^6 cells/mL, and 15 μL of cell suspension was added to each well of the dilution series to yield wells ranging from 0.1 nM to 100 μM peptide and 20000 cells/well. Fluorescence of JC-1 aggregates was measured at 590 nm with 545 nm excitation on a Tecan Safire2 at 5 min intervals for 3 h. The area under each signal-vs-time curve was calculated and normalized to the untreated and FCCP values to produce the percent depolarization. Curves were plotted as the log [peptide] vs percent depolarization, with sigmoidal dose—response curves fitted using Graphpad PRISM 6.

[2] = test system: Mcl-1/Myc 2640 cells
Method: as §1, §2

[3] = test system: Pfeiffer cells; settings: for depolarization response (in words): Pfeiffer
Method: as §1, §2

[4] = test system: MDA-MB-231 cells
Method: as §1, §2

[5] = target: T1, Mcl-1 (Homo sapiens, UniProt Q07820); assay: Fluorescence anisotropy direct binding of N-terminal fluorescein peptides; settings: 23-residue peptide with N-terminal fluorescein
Target sequence in this assay (Q07820 whole entry): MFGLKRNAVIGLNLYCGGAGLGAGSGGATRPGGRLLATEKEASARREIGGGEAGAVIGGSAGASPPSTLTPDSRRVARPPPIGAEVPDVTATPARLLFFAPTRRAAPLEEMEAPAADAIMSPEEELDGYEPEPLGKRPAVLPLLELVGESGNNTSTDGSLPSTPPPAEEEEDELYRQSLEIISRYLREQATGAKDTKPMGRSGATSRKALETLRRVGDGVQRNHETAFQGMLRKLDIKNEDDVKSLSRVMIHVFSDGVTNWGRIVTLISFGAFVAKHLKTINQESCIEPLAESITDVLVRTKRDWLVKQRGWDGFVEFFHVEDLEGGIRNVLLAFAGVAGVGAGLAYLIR

[6] = target: T1, Mcl-1; assay: IC50 (nM)
Description: Table printed on a drawing sheet, FIG. 8
Head of the field: IC50 (nM)
The patent's description of the figure: FIG. 8|Results of studies assessing cell permeability of various internally cross-linked peptides. Stapled peptides based on MB2 lead peptide are shown. […] MB2 (SEQ ID NO:23); B1 SAHBa (SEQ ID NO:24); B1 SAHBf (SEQ ID NO:25); B1 DAHBd (SEQ ID NO:26); B2 SAHBd (SEQ ID NO:27); B3 SAHBd (SEQ ID NO:28); B1 SAHBg (SEQ ID NO:29); B1 SAHBh (SEQ ID NO:30).

[7] = test system: MEF cells; assay: Lactate dehydrogenase (LDH) release assay, non-specific cell lysis; type: cell-based
Description: FIG. 5|Results of studies assessing non-specific cell-lysis by internally cross-linked peptides. Lactate dehydrogenase release assays (LDH) identified membrane-disruptive peptides 3 (SEQ ID NO:9) and 7 (SEQ ID NO:7); tested in MEF cells. Peptides 7, 10, 3, and 11-20 are SEQ ID NOs: 7, 8, 9, and 10-19 respectively.
Additional studies examined the non-specific cell lysis activity of peptide 3 (SEQ ID NO:9) (M1 SAHBd) and certain sequence variants of peptide 3 (SEQ ID NO:9) (M1 SAHBd).

[8] = target: T2, Bcl-xL (Homo sapiens, UniProt Q07817); assay: Fluorescence anisotropy direct binding of N-terminal fluorescein peptides
Target sequence in this assay (Q07817 whole entry): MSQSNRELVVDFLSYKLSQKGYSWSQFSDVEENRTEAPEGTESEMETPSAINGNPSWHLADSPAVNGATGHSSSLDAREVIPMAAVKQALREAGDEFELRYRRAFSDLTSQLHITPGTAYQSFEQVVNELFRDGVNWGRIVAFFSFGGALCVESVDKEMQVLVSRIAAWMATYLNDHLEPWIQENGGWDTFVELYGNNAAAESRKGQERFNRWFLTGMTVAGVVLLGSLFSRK

[9] = target: T3, Bcl-w (Homo sapiens, UniProt Q92843); assay: as above
T3 sequence (Q92843 1-193): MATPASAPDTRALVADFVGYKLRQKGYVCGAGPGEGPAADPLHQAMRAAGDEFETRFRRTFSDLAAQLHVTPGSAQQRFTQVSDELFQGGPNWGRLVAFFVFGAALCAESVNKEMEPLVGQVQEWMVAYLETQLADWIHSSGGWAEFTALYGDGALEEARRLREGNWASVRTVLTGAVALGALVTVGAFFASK

[10] = target: T4, Bfl-1 (Homo sapiens, UniProt Q16548); assay: as above
T4 sequence (Q16548 1-175): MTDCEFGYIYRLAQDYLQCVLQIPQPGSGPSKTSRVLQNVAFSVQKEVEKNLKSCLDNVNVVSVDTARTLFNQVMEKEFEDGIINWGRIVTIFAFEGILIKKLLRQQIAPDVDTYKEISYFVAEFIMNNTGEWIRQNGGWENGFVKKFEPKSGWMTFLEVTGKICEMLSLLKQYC

[11] = target: T5, Bcl-2 (Homo sapiens, UniProt P10415); assay: as above
Target sequence in this assay (P10415 whole entry): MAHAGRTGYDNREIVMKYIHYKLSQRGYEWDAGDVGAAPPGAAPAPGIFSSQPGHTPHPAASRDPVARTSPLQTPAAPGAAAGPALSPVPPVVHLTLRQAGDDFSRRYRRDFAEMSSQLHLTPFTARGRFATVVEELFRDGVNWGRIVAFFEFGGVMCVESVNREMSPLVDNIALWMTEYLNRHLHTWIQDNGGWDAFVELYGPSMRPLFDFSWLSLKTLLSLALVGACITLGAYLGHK

[12] = target: Bfl-1 (Homo sapiens, UniProt Q16548); assay: receptor | Bfl-1
[13] = target: T5, Bcl-2; assay: receptor | Bcl-2
Target sequence in this assay (P10415 whole entry, looked up): as the sequence (P10415 whole entry) above

[14] = target: T2, Bcl-xL; assay: receptor | Bcl-xL
Target sequence in this assay (Q07817 whole entry, looked up): as the sequence (Q07817 whole entry) above

[15] = target: Bcl-w (Homo sapiens, UniProt Q92843); assay: receptor | Bcl-w
[16] = target: T1, Mcl-1; assay: receptor | Mcl-1; settings: read-out: receptor | Mcl-1
Target sequence in this assay (Q07820 whole entry, looked up): as the sequence (Q07820 whole entry) above

[17] = parent: Bim for Bim_A2eT, Bim_A2eT for its point mutants, A12/B3 for MS1/MS2

## RPEIWITQGLRRIGDEFNAYYAR [Bim_A2eT_E2gG]
[1]; Bcl-2/Myc 2924
  depolarization response (in words): depolarization response intermediate to that of Bim and MS1
[2]; Mcl-1/Myc 2640
  depolarization response (in words): strong depolarization response
[3]
  depolarization response (in words): depolarization response intermediate to that of Bim and MS1
[4]; MDA-MB-231
  depolarization response (in words): depolarization response intermediate to that of Bim and MS1

## RPEIWLGQSLQRLGDEINAYYAR [B3, Bim-BH3 variant clone from yeast surface display library]
[5]
  binding preference among KSBcl-2 and five human Bcl-2 family proteins: bound to KSBci-2 and Mcl-1 in preference to Bcl-2, Bfl-1, Bcl-w, and to a lesser extent Bcl-xL

## RPEIWMGQGLRRLGDEINAYYAR [A12, Bim-BH3 variant clone from yeast surface display library]
[5]
  binding preference among KSBcl-2 and five human Bcl-2 family proteins: bound to KSBci-2 and Mcl-1 in preference to Bcl-2, Bfl-1, Bcl-w, and to a lesser extent Bcl-xL

## IWFAQEIDRIGDEVNAYYARR (See specification as filed for detailed description of substitutions and preferred embodiments) [B1, native, non-stapled B1 peptide]
[6]
  IC50: 0.09 µM

## CCCC[C@H](NC(=O)[C@H](Cc1c[nH]c2ccccc12)NC(=O)[C@@H](NC(C)=O)[C@@H](C)CC)C(=O)N[C@H](C(=O)N[C@@H](CCC(N)=O)C(=O)NCC(=O)N[C@@H](CC(C)C)C(=O)N[C@@H](CCCNC(=N)N)C(=O)N[C@@]1(C)CCCC=CCCC[C@@](C)(C(=O)N[C@H](C(=O)N[C@@H](CC(N)=O)C(=O)N[C@@H](C)C(=O)N[C@@H](Cc2ccc(O)cc2)C(=O)N[C@@H](Cc2ccc(O)cc2)C(=O)N[C@@H](C)C(=O)N[C@@H](CCCNC(=N)N)C(=O)N[C@@H](CCCNC(=N)N)C(N)=O)[C@@H](C)CC)NC(=O)[C@H](CC(=O)O)NC(=O)CNC(=O)[C@H](CC(C)C)NC1=O)[C@@H](C)O [peptide 7, IWNleTQGLRXLGDXINAYYARR] (Ac-IW[Nle]TQGLR[S5]LGD[S5]INAYYARR-NH2; staple 9-13; N-terminus assumed)
[7]
  LDH release, membrane disruption (in words): membrane-disruptive

## CC[C@H](C)[C@H](NC(=O)[C@H](CCC(=O)O)NC(=O)[C@H](CC(=O)O)NC(=O)CNC(=O)[C@H](CC(C)C)NC(=O)[C@H](CCCNC(=N)N)NC(=O)[C@H](CCC(N)=O)NC(=O)[C@H](CC(C)C)NC(=O)[C@H](CO)NC(=O)[C@H](CCC(N)=O)NC(=O)[C@@H](NC(=O)[C@H](CC(C)C)NC(=O)[C@H](Cc1c[nH]c2ccccc12)NC(=O)[C@@H](NC(=O)[C@H](CCC(=O)O)NC(=O)[C@@H]1CCCN1C(=O)[C@H](CCCNC(=N)N)NC(C)=O)[C@@H](C)CC)[C@@H](C)O)C(=O)N[C@@H](CC(N)=O)C(=O)N[C@@H](C)C(=O)N[C@@H](Cc1ccc(O)cc1)C(=O)N[C@@H](Cc1ccc(O)cc1)C(=O)N[C@@H](C)C(=O)N[C@@H](CCCNC(=N)N)C(N)=O [MS2]
[8]
  binding affinity to Bcl-xL (in words): micromolar affinity
[8]; [17]
  reduction in Bcl-xL binding relative to the peptide without the mutation: ~100 fold
[9]
  binding affinity to Bcl-w (in words): hundred-nanomolar range
[9]; [17]
  reduction in Bcl-w binding relative to the peptide without the mutation: ~10 fold
[10]
  binding affinity to Bfl-1 (in words): micromolar affinity
[10]; [17]
  reduction in Bfl-1 binding relative to the peptide without the mutation: ~100 fold
[1]
  EC50: > 100 µM
[2]
  EC50: 0.7 µM
[3]
  EC50: > 100 µM
[4]
  EC50: > 100 µM
[11]
  binding affinity to Bcl-2 (in words): micromolar affinity
[11]; [17]
  reduction in Bcl-2 binding relative to the peptide without the mutation: ~100 fold

## CC[C@H](C)[C@H](NC(=O)[C@H](CCCNC(=N)N)NC(=O)[C@H](CCCNC(=N)N)NC(=O)[C@H](CC(C)C)NC(=O)CNC(=O)[C@H](CCC(N)=O)NC(=O)[C@@H](NC(=O)[C@@H](NC(=O)[C@H](Cc1c[nH]c2ccccc12)NC(=O)[C@@H](NC(=O)[C@H](CCC(=O)O)NC(=O)[C@@H]1CCCN1C(=O)[C@@H](N)CCCNC(=N)N)[C@@H](C)CC)[C@@H](C)CC)[C@@H](C)O)C(=O)NCC(=O)N[C@@H](CC(=O)O)C(=O)N[C@@H](CCC(=O)O)C(=O)N[C@@H](Cc1ccccc1)C(=O)N[C@@H](CC(N)=O)C(=O)N[C@@H](C)C(=O)N[C@@H](Cc1ccc(O)cc1)C(=O)N[C@@H](Cc1ccc(O)cc1)C(=O)N[C@@H](C)C(=O)N[C@@H](CCCNC(=N)N)C(N)=O [Bim_A2eT_E2gG]
[12]
  Kd: 0.25 ± 0.063 µM
[13]
  Kd: 0.15 ± 0.027 µM
[14]
  Kd: 0.037 ± 0.007 µM
[15]
  Kd: 0.094 ± 0.036 µM
[16]
  Kd: 0.0016 ± 0.00057 µM

## CC[C@H](C)[C@H](NC(=O)[C@H](CCC(=O)O)NC(=O)[C@H](CC(=O)O)NC(=O)CNC(=O)[C@H](CC(C)C)NC(=O)[C@H](CCCNC(=N)N)NC(=O)[C@H](CCC(N)=O)NC(=O)[C@H](CC(C)C)NC(=O)[C@H](Cc1c[nH]cn1)NC(=O)[C@H](CCC(N)=O)NC(=O)[C@@H](NC(=O)[C@H](CC(C)C)NC(=O)[C@H](Cc1c[nH]c2ccccc12)NC(=O)[C@@H](NC(=O)[C@H](CCC(=O)O)NC(=O)[C@@H]1CCCN1C(=O)[C@H](CCCNC(=N)N)NC(C)=O)[C@@H](C)CC)[C@@H](C)O)C(=O)N[C@@H](CC(N)=O)C(=O)N[C@@H](C)C(=O)N[C@@H](Cc1ccc(O)cc1)C(=O)N[C@@H](Cc1ccc(O)cc1)C(=O)N[C@@H](C)C(=O)N[C@@H](CCCNC(=N)N)C(N)=O [MS3]
[8]
  binding affinity to Bcl-xL (in words): micromolar affinity
[9]
  binding affinity to Bcl-w (in words): several-hundred nanomolar affinity
[10]
  binding affinity to Bfl-1 (in words): several-hundred nanomolar affinity
[3]
  depolarization response (in words): stronger response in Pfeiffer than MS1 or MS2
[11]
  binding affinity to Bcl-2 (in words): micromolar affinity
